The record followed here is patent publication EP0156508A1, “Antifungal aerosol solution” (ORTHO PHARMACEUTICAL CORPORATION, priority 1984, dated 1985).

Like-named read-outs stand apart in the source and are kept apart here.

The series is described as follows: Solubility of miconazole nitrate in several common solvents. It is filed as physicochemical. The text has this:
The imidazole ethers in general and the miconazoles in particular have very low solubilities in most solvents suitable for use in topical pharmaceutical compositions such as in the treatment of fungal skin infections. The solubility of miconazole nitrate, for example, in several common solvents has been determined to be as follows: […]

A word on the solubility: it is the concentration that dissolves in the medium under given conditions. For the molecule `Clc1ccc(COC(Cn2ccnc2)c2ccc(Cl)cc2Cl)c(Cl)c1.O=[N+]([O-])O` (stereo not drawn) [miconazole nitrate, 1-[2,4-dichloro-β-(2,4-dichlorobenzyloxy)-phenethyl] imidazole nitrate], the solubility (Solvent: 40% PG/water, read-out: solubility) came out at 1300 µg/mL; the solubility (Solvent: HCl 0.1 N, read-out: solubility) worked out at 500 µg/mL; the solubility entry (Solvent: NaOH) was “Insoluble”; the solubility (Solvent: Water, read-out: solubility) worked out at 300 µg/mL; the solubility (organic solvent or mixture, Solvent: 2-Propanol, read-out: solubility) is 1300 µg/mL; the solubility (organic solvent or mixture, Solvent: Acetone, read-out: solubility) came out at 3400 µg/mL. Besides, the solubility is, setting by setting: (organic solvent or mixture, Solvent: Benzene, read-out: solubility) 500 µg/mL; (organic solvent or mixture, Solvent: Chloroform, read-out: solubility) 3100 µg/mL; (organic solvent or mixture, Solvent: Ethanol, read-out: solubility) 7600 µg/mL; (organic solvent or mixture, Solvent: Ethyl Acetate, read-out: solubility) 700 µg/mL; (organic solvent or mixture, Solvent: Hexane, read-out: solubility) 300 µg/mL; (organic solvent or mixture, Solvent: Methanol, read-out: solubility) 15000 µg/mL. The solubility (organic solvent or mixture, Solvent: Methyl Isobutylketone, read-out: solubility) stood at 400 µg/mL; the solubility (organic solvent or mixture, Solvent: PEG 300, read-out: solubility) was found to be 1300 µg/mL; the solubility (organic solvent or mixture, Solvent: Propylene Glycol, read-out: solubility) is 1500 µg/mL; the solubility (organic solvent or mixture, Solvent: Tetrahydrofuran, read-out: solubility) is 2000 µg/mL.
